Values quoted from earlier work in patent publication US8758740B2, “Composition for promoting ketone body production” (Earthus, Inc, priority 2007, dated 2014).
Read-outs that look alike come from different tables or passages of the source.

Columns and labels:
[1] = dog
[2] = single oral bolus, 10 g of the cyclic trimer

C[C@@H]1CC(=O)O[C@H](C)CC(=O)O[C@H](C)CC(=O)O1 [cyclic trimer]
blood ketone body level ([1]; meat with 23.5 g cyclic trimer four times over 9 hours, after the third administration (at 6 hours)): 30 times of the normal level | blood hydroxybutyric acid level ([1]; meat with 23.5 g cyclic trimer four times over 9 hours, within 30 minutes from the first administration): about 50 times of the normal level | highest blood hydroxybutyric acid level [1, 2]: more than 5 times of the normal level | time of the highest blood hydroxybutyric acid level from the administration [1, 2]: 90 min | blood level of ketone bodies (80 minutes after oral administration of diet containing 11 wt % of the trimer): 1.8 times of the normal level | blood level of ketone bodies (150 minutes after oral administration of diet containing 11 wt % of the trimer): 2.4 times of the normal level
